Measured values as given in US20240374510A1, “COMPOSITIONS, USES AND METHODS FOR TREATMENT OF PERIODONTAL DISEASE” (THE UNIVERSITY OF BRITISH COLUMBIA, priority 2023, published 2024).

B1: HB-EGF: EGFR ligand heparin-binding EGF-like growth factor (protein, UniProt Q99075 63-148, looked up)
Heparin-binding EGF-like …: DLQEADLDLLRVTLSSKPQALATPNKEEHGKRKKKGKGLGKKRDPCLRKYKDFCIHGECKYVKELRAPSCICHPGYHGERCHGLSL

Columns and labels:
ITGB6 [1] = settings: Bi et al., 2020; cited from earlier work
[2] = test system: human gingival epithelial cell line (GEC); experiment: MTT test of cell viability and proliferation; assay type: cell-based; settings: 24 h, unencapsulated gefitinib
Protocol: The spontaneously immortalized human gingival epithelial cell line (GEC; (Mäkelä et al., 1998)) was maintained in a humidified incubator at +37° C. with 95% relative humidity and 5% CO2 in DMEM supplemented with 23 mM sodium bicarbonate, 20 mM HEPES, 50 μg/ml streptomycin sulfate, 100 U/ml penicillin and 10% heat-inactivated fetal bovine serum (FBS; Gibco). […]
The MTT test (CellTiter Non-radioactive Cell Proliferation Assay, Promega, Madison, WI, USA) was used to assess the effect of the microparticle formulations on cell viability and proliferation (Twarużek et al., 2018). […] The Solubilization/Stop Solution was then added to the culture wells for 24 h to solubilize the formazan product, and the absorbance at 570 nm was recorded with a microplate reader (iMark, Bio-Rad Laboratories, Hercules, CA, USA). […]
In each test, the cells were exposed to the formulation being tested for 24 h and then analyzed for cell numbers using the MTT test. Absorbance values of the untreated samples in each replicate experiment were set to 1, and the mean±s.e.m. of the relative results of 10-18 replicated experiments is presented. *, relative to untreated cells; +, difference between the same concentration of gefitinib and control microparticles; */+, p<0.05; **/++, p<0.01; ***/+++, p<0.001. […]

[3] = In-vitro release rate of gefitinib by the dialysis sack method; assay type: physicochemical; settings: artificial saliva and cell culture medium
Protocol: The release rate of gefitinib from microparticles as described herein into each of two different liquids was tested. The two test liquids were: artificial saliva (SAE0149, Sigma Aldrich) and Dulbecco's Modified Eagle Medium (DMEM; Gibco, Life Technologies, Inc., Burlington, ON, Canada). These liquids were used to simulate the environment of the oral cavity and body fluid, respectively.
In each of these in-vitro experiments, a dry powder of spray-dried microparticles according to one of the tested formulations was mixed into the applicable test liquid at a concentration of 20 μg dry powder per ml of test liquid.
The in-vitro release behaviors of the formulations identified as (*1), (*2), (*3), and (*4) in Table 2 were each tested by the dialysis sack method (cutoff molecular weight 8 kDa; Spectra Por; Spectrum Chemical Mfg. Corp., New Brunswick, NJ, USA). All samples were incubated at room temperature with continuous shaking at 70 rpm. […] The fluid was analyzed for gefitinib content by HPLC. The release rate of gefitinib from suspensions of dry powders in liquid was calculated from the ratio of released gefitinib to the total gefitinib encapsulated in the powders.
The release rate of unencapsulated gefitinib was measured according to the same protocol described above for the spray-dried microparticles.

ITGB6 [4] = experiment: Rescue of β6 integrin gene expression in GECs by RT-qPCR; assay type: cell-based, human
Protocol: GECs were seeded into cell culture dishes and allowed to grow to confluency for two days in their complete growth medium. The cells were then rinsed once with PBS and switched to FBS-free DMEM for 2 h in the presence or absence of one of: one of the suspensions of gefitinib-microparticles as above, one of the suspensions of respective control microparticles as above or 0.3 μM gefitinib. HB-EGF (5 ng/ml) and TGF-β1 (2 ng/ml; Millipore) were then added to the cells for a further 24 h.
The cells were then rinsed with PBS and used for RNA isolation and quantitative real-time reverse transcription PCR (RT-qPCR). Briefly, total RNA was extracted using PuroSPIN™ MINI Spin Columns (Luna Nanotech, Inc., Markham, ON, Canada) and the LogSpin method (Yaffe et al., 2012), and RNA concentration and purity were determined by spectrophotometry (NanoDrop One, Thermo Fisher Scientific, Waltham, MA, USA). 1 μg of total RNA was reverse-transcribed into cDNA using the High-Capacity cDNA Reverse Transcription Kit (Applied Biosystems, Thermo Fisher Scientific). […]
Asparagine-linked glycosylation 9 (ALG9) and glyceraldehyde-3-phosphate dehydrogenase (GAPDH) were used as reference genes for the target gene ITGB6 in triplicates. […] The data were analyzed using the Applied Biosystems Relative Quantification Analysis Module. […]

Molecule | blocking of ITGB6 downregulation by HB-EGF (ITGB6 [1]) | other results
C=CC(=O)Nc1cc2c(Nc3ccc(F)c(Cl)c3)ncnc2cc1OCCCN1CCOCC1 [canertinib] | capable of dose-dependently blocking ITGB6 downregulation | 
CS(=O)(=O)CCNCc1ccc(-c2ccc3ncnc(Nc4ccc(OCc5cccc(F)c5)c(Cl)c4)c3c2)o1 [lapatinib] | capable of dose-dependently blocking ITGB6 downregulation | 
COc1cc2ncnc(Nc3ccc(F)c(Cl)c3)c2cc1OCCCN1CCOCC1 [gefitinib] | capable of dose-dependently blocking ITGB6 downregulation | gefitinib concentration giving the corresponding GEC growth inhibition (baseline levels) [2]: 0.3 µM; release rate of gefitinib, in words [3]: quickly released
C#Cc1cccc(Nc2ncnc3cc(OCCOC)c(OCCOC)cc23)c1 [erlotinib] | capable of dose-dependently blocking ITGB6 downregulation | 
TGF-β1: transforming growth factor-β1, used to upregulate ITGB6 |  | upregulation of ITGB6 expression (ITGB6 [4]; TGF-β1 alone, 2 ng/ml, 24 h): about seven-fold
COc1cc2ncnc(Nc3ccc(F)c(Cl)c3)c2cc1NC(=O)/C=C/CN1CCCCC1 [dacomitinib] | capable of dose-dependently blocking ITGB6 downregulation | 
B1 |  | reduction of the TGF-β1 upregulation of ITGB6 (ITGB6 [4]; addition of HB-EGF 5 ng/ml to TGF-β1): about 60%
